Source: patent US7955425B2, “Ink composition for ink jet recording” (Seiko Epson Corporation, priority 2008, dated 2011)

Columns and labels:
[1] = Surface tension of aqueous solution; assay type: physicochemical
[2] = Evaluation of solubility of poorly water-soluble alkane diol; assay type: physicochemical; settings: for Ability to dissolve 1,2-octanediol: two-component aqueous alcohol solution with 10% by weight 1,2-octanediol and 10% by weight 1,2-hexanediol, FIG. 1
Experimental: An aqueous solution containing 10% by weight of 1,2-octanediol was prepared using 1,2-octanediol as a poorly water-soluble alkane diol.
Five alcohol solvents, 1,6-hexanediol (hereinafter referred to as 1,6-HED), 3-methyl-1,5-pentanediol (hereinafter referred to as 3 MPED), 1,5-pentanediol (hereinafter referred to as 1,5-PED), 1,2-hexanediol (hereinafter referred to as HED), and 2,2′-dimethylpropanediol (hereinafter referred to as 2 MPRD) were added to 10 g of the aqueous solution until the aqueous solution became transparent.
In place of the aqueous solution described above, an aqueous solution that contains 10% by weight of 1,2-octanediol as the poorly water-soluble alkane diol and 10% by weight of 1,2-hexanediol as the water-soluble 1,2-alkane diol was prepared, and the alcohol solvents were added to the aqueous solution until the aqueous solution became transparent, as described above.

Row | surface tension ([1]; 15% aqueous solution) | Structure (SMILES) | Ability to dissolve 1,2-octanediol [2] | also measured
1 | 26.7 mN/m | CCCCC(O)CO (stereo not shown) [1,2-hexanediol] |  | 
2 |  | CCCCCCC(O)CO (stereo not shown) [1,2-octanediol] |  | Solubility of 1,2-octanediol in water ([2]; aqueous solution containing 10% by weight of 1,2-octanediol): incompletely dissolved
3 |  | OCCCCCO [1,5-PED, 1,5-pentanediol] | higher ability to dissolve 1,2-octanediol than the addition of HED alone | 
4 |  | OCCCCCCO [1,6-HED, 1,6-hexanediol] | higher ability to dissolve 1,2-octanediol than the addition of HED alone | 
5 |  | CC(C)(CO)CO [2 MPRD, 2,2′-dimethylpropanediol] | higher ability to dissolve 1,2-octanediol than the addition of HED alone | 
6 |  | CC(CO)CO [2-methyl-1,3-propanediol] |  | surface tension ([1]; 10% aqueous solution): 57.5 mN/m
7 |  | CC(CCO)CCO [3 MPED, 3-methyl-1,5-pentanediol] | higher ability to dissolve 1,2-octanediol than the addition of HED alone | 
8 | 26.1 mN/m | CC(C)(C)C(O)CO (stereo not shown) [3,3-dimethyl-1,2-butanediol] |  | 
9 |  | CC(CCO)CCO [3-methyl-1,5-butanediol] |  | surface tension ([1]; 10% aqueous solution): 45.8 mN/m
10 | 25.4 mN/m | CC(C)CC(O)CO (stereo not shown) [4-methyl 1,2-pentanediol] |  | 
